Measurements: patent EP2050747A1, “Dimers of harmol or of its derivatives and uses thereof” (BioAlliance Pharma, priority 2007, dated 2009)

Key:
NIH 3T3 EF cells = assay: Rescue of F-actin network, FITC-phalloidin fluorescence microscopy; type: cell-based; settings: non cytotoxic concentration (100 nM), three days, Figure 4
Procedure: Malignant NIH 3T3 EF cells were seeded onto glass cover slips at a density of 2000 cells per cm^2. The next day, tested molecules were applied to NIH 3T3 EF cells at various non cytotoxic concentrations. Three days later, cells were fixed for 10 min in PBS containing 3.7 % formaldehyde at 4°C before examination with a fluorescence microscope. The formaldehyde solution was neutralized with 50 mM NH4Cl. Permeabilisation was carried out for 4 min with 0.4% Triton X-100 in PBS. Cells were incubated for 1 h at room temperature with blocking buffer (3% bovine serum albumin in PBS) and then for 1 h with FITC-phalloidin (Sigma) which stabilizes structures by inhibiting phosphate release from ADP-Pi-actin filaments and allows visualization of actin filaments by fluorescence microscopy. The cover slips were mounted on microscope slides using a solution of glycerol 50%, DABCO 2.5% in PBS as embedding medium.

[1] = test system: malignant NIH 3T3 EF cells; assay: Wound healing assay (cell motility); type: cell-based; settings: NIH 3T3 EF, non cytotoxic concentration (25-100 nM), 10 h after wound formation, Figure 5
Procedure: (§1) Harmol dimers have been tested in a cell motility assay: the behaviour of tumoral cells treated by these dimers was compared with non-treated tumoral cells in a wound healing assay. Wound healing assay was performed to evaluate the effect of tested molecules on motility of malignant NIH 3T3 EF cells and melanoma cell line B16F10. About 100 000-200 000 cells were seeded in a 6-well culture plate and the tested molecule was added 24 hours later. Cells were grown for 3 days to confluence about 90-95% and small scratch-wounds (1 mm width) were made with a pipette tip. Cell debris were removed, then the cultures were incubated in complete medium for 10 h in the presence of the same concentration of the tested molecule. Then, the cells were fixed for 10 min in PBS containing 3.7% formaldehyde at 4°C.

B16F10 [2] = assay: MTT assay (cellular viability); type: cell-based, Murine; settings: for IC50: Mus musculus, B16-F10, 72 h, B16F10, 3 days
Procedure: (§2) Growth studies were performed using the [3-(4,5 dimethylthiazol-2-yl)-2,5-diphenyl-2H-tetrazolium bromide] (Sigma) colorimetric assay.
(§3) About 1500 cells were seeded in a 96-well culture plate 24 hours before adding increasing concentrations of tested molecule. The plate was incubated at 37°C for 3 days. 10 µl MTT stock solution (5 mg/ml in phosphate buffer saline) was added to 90 µl of complete medium in each well, the incubation was continued for 3 h at 37°C. 100 µl of lysis buffer (10 % sodium dodecyl sulfate, 1% HCl 1N; pH 4.7) was added to each well, and the plate was incubated overnight. The absorbance was determined using an Integrated EIA Management System (Labsystem) at a wavelength of 570 nm. The proliferation rates were calculated from the OD readings using the untreated cells as 100%.

NIH 3T3 EF [3] = assay: Cloning assay, colony formation in semi solid medium (methylcellulose); type: cell-based; settings: for inhibitory activity on NIH 3T3 EF colony formation in methylcellulose semi-solid medium: Figure 2; for IC50: Mus musculus, NIH3T3, 504 h, NIH 3T3 EF, 3 weeks, read-out: Inhibition of colony formation (methylcellulose) IC50
Procedure: (§4) Cells were embedded in complete culture medium supplemented with 0,8% methylcellulose (Methocel MC4000, Sigma), seeded in triplicate into 35-mm dishes (Greiner Bio-one Ref 627102, Dominique Dutscher) and incubated at 37 °C in a humidified 5% CO2 atmosphere.
(§5) The number of cells seeded was 1000 cells per dish. After one week (B16F10 cell line) to 3 weeks (NIH 3T3 EF cell line), macroscopic clones were counted.

[4] = test system: melanoma cell line B16F10; assay: Wound healing assay (cell motility); type: cell-based, Murine; settings: B16F10, non cytotoxic concentration (25-100 nM), 24 h after wound formation, Figure 6
Procedure: as §1, with “Cell debris were removed, then the cultures were incubated in complete medium for 10 h in the presence of the same concentration of the tested molecule.” left out

F-actin = assay: Actin dynamics, fluorescence anisotropy assay in tumor cell cytosolic fraction; type: biochemical; design: Kobs: unit not given beside the values; settings: for Kobs: rate constant of F-actin elongation; for actin polymerisation kinetics compared with normal NIH 3T3 cytosolic fraction: tumoral NIH 3T3 EF cytosolic fraction; for F actin steady state value (Δ mA max), effect in words / F actin elongation rate constant (Kobs), effect in words: added to assay medium, versus untreated; for F actin steady state value (Δ mA max), effect in words: NIH 3T3 EF cytosolic fraction or lysate, harmol at 10 µM
Procedure: Actin dynamics have been quantified in tumor cell cytosolic fraction using the fluorescence anisotropy assay which gains access to rate constant of F-actin elongation (kobs) and steady state concentration of F-actin (Δ mA max).
All reactions were carried out at 22°C and fluorescence anisotropy signal was recovered at 520 nm with excitation at 490 nm in a Beacon 2000 (Panvera). Alexa 488 actin (Molecular Probes) was centrifuged at 35 000 rpm for 2 h at 4°C to sediment residual actin polymers in a Beckman L5-50B ultracentrifuge. […] 80% of the supernatant was withdrawn; the concentration was defined through fluorescence measurements (excitation at 490 nm and signal recovering at 520 nm). The ultracentrifuged actin concentration was calculated using the non ultracentrifuged Alexa 488 actin as a standard. The supernatant was aliquoted, frozen in liquid nitrogen and stored at -80°C.
Before experiment, an aliquot of ultracentrifuged Alexa 488 actin was diluted to a concentration of 1 mg/ml in G buffer (5 mM Tris pH 8.1, 2 mM CaCl2, 0.2 mM DTT, 0.2 mM ATP). 3 µl of diluted Alexa 488 actin was mixed in 168 µl of G buffer and actin monomers anisotropy was measured before the addition of 4 µl of polymerisation buffer (2.5 M KCI, 50 mM MgCl2, 25 mM ATP), 5 µl of G buffer in the presence or in the absence of the chemical molecule and 20 µl cellular extract of normal NIH 3T3 cells or malignant NIH 3T3 EF cells at 2 mg/ml. The final concentration of Alexa 488 actin was 4 nM. The ratio of unlabelled to labelled actin was about 140/4 nM. Measurements were made each 10 sec for 200 sec. Actin monomers anisotropy value was subtracted, yielding the anisotropy enhancement (Δ mA). The data were fitted with the equation Y= Ymax . [1- exp(- K.X)]. The curves start at zero and ascend to Ymax that corresponds to the steady state anisotropy value (Δ mA eq), with a rate constant K. Y is anisotropy values of which monomers anisotropy is substracted and X is the time (Assessment of cellular actin dynamics by measurement of fluorescence anisotropy. Anal Biochem. 2007 Aug 1;367(1):95-103. Epub 2007 Apr 5. Spitz et al.).

B16F10 [5] = assay: Cloning assay, colony formation in semi solid medium (methylcellulose); type: cell-based, Murine; settings: for IC50: Mus musculus, B16-F10, 168 h, B16F10, one week, read-out: Inhibition of colony formation (methylcellulose) IC50
Procedure: as §4, §5

NIH 3T3 EF [6] = assay: MTT assay (cellular viability); type: cell-based; settings: Mus musculus, NIH3T3, 72 h, 3 days
Procedure: as §2, §3

B16F10 tumor = assay: In vivo tumorigenicity assay, subcutaneous B16F10 tumor growth; design: species or system C57BU6 mice
Procedure: Female 6-8 week-old C57BU6 mice were provided by Harlan (Gannat, France).
Animals were housed in air-conditioned atmosphere, given food and water in standard conditions. One million B16F10 cells in 0.1 ml PBS were injected subcutaneously into the right flank of mice. Seven days after cells inoculation, it was possible to measure tumor volume (day 0). Thereafter, before drug administration, female C57BU6 mice were randomized to form 2 groups. […]
B16F10 tumor development was monitored for 2 weeks. The tumor size was estimated every fourth day by measuring the diameters of the tumors in two perpendicular dimensions using callipers. The volume of tumor (V) was calculated using the formula, V = 2W(U2)2 , where L and W were respectively the length and the width of tumor.
In vivo tumorigenicity assay was studied with harmine. […] In parallel, control mice were treated by one daily oral route administration of the vehicle.

[7] = 10 µM, NIH 3T3 EF extract, steady state concentration of F-actin (anisotropy enhancement)

Row | IC50 (B16F10 [2]) [nM] | IC50 (B16F10 [5]) [nM] | SMILES | reorganisation of the actin network in tumor cells (NIH 3T3 EF cells) | inhibition of malignant cell motility [1] | inhibitory activity on NIH 3T3 EF colony formation in methylcellulose semi-solid medium (NIH 3T3 EF [3]) | IC50 (NIH 3T3 EF [3]) [nM] | inhibition of malignant cell motility [4] | Kobs (F-actin; 10 µM, NIH 3T3 EF extract) | Δ mA max (F-actin; [7]) | actin polymerisation kinetics compared with normal NIH 3T3 cytosolic fraction (F-actin; 10 µM) | F actin steady state value (Δ mA max), effect in words (F-actin) | F actin elongation rate constant (Kobs), effect in words (F-actin; NIH 3T3 EF cytosolic fraction) | inhibitory activity on B16F10 colony formation in methylcellulose semi-solid medium (B16F10 [5]; Figure 3) | IC50 (NIH 3T3 EF [6]) [nM] | also measured
1 | 400 | 30 | Cc1nccc2c1[nH]c1cc(OCCCCCOc3ccc4c(c3)[nH]c3c(C)nccc34)ccc12 [BA016DD1172, 7,7'-[Pentane-1,5-diylbis(oxy)]bis(1-methyl-9H-β-carboline)] | able to reorganise the actin network | inhibited | marked inhibitory activity | 50 | inhibited | 0,179 | 62 | similar | increased | increased | marked inhibitory activity | 300 | antitumor activity against B16 melanoma (B16F10 tumor; daily per os 100 mg/kg for five days, Figure 7): marked antitumor activity; tumoral growth inhibition (B16F10 tumor; day 7, daily per os 100 mg/kg for five days, versus control group, p = 0,0020): 48,5%
2 | 750 | 125 | Cc1nccc2c1[nH]c1cc(OCC3OC(C)(C)OC3COc3ccc4c(c3)[nH]c3c(C)nccc34)ccc12 (stereo not drawn) [BA016DD1183, 7,7'-[(2,2-dimethyl-1,3-dioxolane-4,5-diyl)bis(methyleneoxy)]bis(1-methyl-9H-β-carboline)] | able to reorganise the actin network | inhibited | marked inhibitory activity | 300 | inhibited | 0,158 | 61 | similar | increased | increased | marked inhibitory activity | 1000 | –
3 | 1500 | 175 | Cc1nccc2c1[nH]c1cc(OCCCOc3ccc4c(c3)[nH]c3c(C)nccc34)ccc12 [BA016FZ527, 7,7'-[Propane-1,3-diylbis(oxy)]bis(1-methyl-9H-β-carboline)] | able to reorganise the actin network | inhibited | marked inhibitory activity | 500 | inhibited | 0,132 | 83 | – | increased | increased | marked inhibitory activity | 1000 | F actin steady state value compared with NIH 3T3 cytosolic fraction (F-actin; 10 µM, NIH 3T3 EF cytosolic fraction): higher; F actin elongation rate constant compared with NIH 3T3 cytosolic fraction (F-actin; NIH 3T3 EF cytosolic fraction, BA016FZ527 at 10 µM, harmine concentration not given): higher

Second part, the compound before the results:

Row | SMILES | IC50 (B16F10 [2]) [nM] | IC50 (B16F10 [5]) [nM] | reorganisation of the actin network in tumor cells (NIH 3T3 EF cells) | inhibition of malignant cell motility [1] | inhibitory activity on NIH 3T3 EF colony formation in methylcellulose semi-solid medium (NIH 3T3 EF [3]) | IC50 (NIH 3T3 EF [3]) [nM] | inhibition of malignant cell motility [4] | Kobs (F-actin; 10 µM, NIH 3T3 EF extract) | Δ mA max (F-actin; [7]) | actin polymerisation kinetics compared with normal NIH 3T3 cytosolic fraction (F-actin; 10 µM) | F actin steady state value (Δ mA max), effect in words (F-actin) | F actin elongation rate constant (Kobs), effect in words (F-actin; NIH 3T3 EF cytosolic fraction) | inhibitory activity on B16F10 colony formation in methylcellulose semi-solid medium (B16F10 [5]; Figure 3) | IC50 (NIH 3T3 EF [6]) [nM] | also measured
4 | COc1ccc2c3ccnc(C)c3n(CCCCCn3c4cc(OC)ccc4c4ccnc(C)c43)c2c1 [BA016FZ518, 9,9'-pentane-1,5-diylbis(7-methoxy-1-methyl-9H-β-carboline)] | 3000 | 40 | able to reorganise the actin network | inhibited | marked inhibitory activity | 250 | inhibited | 0,104 | 59 | similar | increased | increased | marked inhibitory activity | 750 | –
5 | Cc1nccc2c1[nH]c1cc(O)ccc12 [harmol] | – | – | – | – | – | – | – | – | – | – | No increase | – | – | – | cytotoxicity as measured by MTT test (B16F10 [2]; at 3 µM): non-cytotoxic concentration; Δ mA max (F-actin; 10 µM, tumoral NIH3T3 EF cellular lysate): 42 mA; inhibitory activity on B16F10 colony formation in methylcellulose semi-solid medium (B16F10 [5]; at 3 µM): did not display an inhibitory activity
